From patent US9040506B2, “7,11-methanocycloocta [B] quinoline derivative as highly functionalizable acetylcholinesterase inhibitors” (priority 2010, dated 2015)
Read-outs that look alike come from different tables or passages of the source.

Legend:
AChE [1] = molecular target: T1, AChE (Homo sapiens, UniProt P22303); conditions: Camps et al.; cited from earlier work
rh-AChE = rh-AChE (Homo sapiens, UniProt P22303); assay: biochemical; conditions: read-out: IC50 rh-AChE
rh-BuChE = rh-BuChE (Homo sapiens, UniProt P06276); assay: IC50 rh-BuChE; assay type: biochemical
erythrocyte h-AChE = molecular target: T2, erythrocyte h-AChE (Homo sapiens, UniProt P22303); assay: IC50 erythrocyte h-AChE; assay type: biochemical
T2 construct: from tissue; host or cells: human erythrocytes

AChE [2] = molecular target: T1, AChE; assay: AChE inhibition, general statements; assay type: biochemical
[3] = read-out: IC50 erythrocyte h-AChE

Chain of rh-AChE (P22303 32-614): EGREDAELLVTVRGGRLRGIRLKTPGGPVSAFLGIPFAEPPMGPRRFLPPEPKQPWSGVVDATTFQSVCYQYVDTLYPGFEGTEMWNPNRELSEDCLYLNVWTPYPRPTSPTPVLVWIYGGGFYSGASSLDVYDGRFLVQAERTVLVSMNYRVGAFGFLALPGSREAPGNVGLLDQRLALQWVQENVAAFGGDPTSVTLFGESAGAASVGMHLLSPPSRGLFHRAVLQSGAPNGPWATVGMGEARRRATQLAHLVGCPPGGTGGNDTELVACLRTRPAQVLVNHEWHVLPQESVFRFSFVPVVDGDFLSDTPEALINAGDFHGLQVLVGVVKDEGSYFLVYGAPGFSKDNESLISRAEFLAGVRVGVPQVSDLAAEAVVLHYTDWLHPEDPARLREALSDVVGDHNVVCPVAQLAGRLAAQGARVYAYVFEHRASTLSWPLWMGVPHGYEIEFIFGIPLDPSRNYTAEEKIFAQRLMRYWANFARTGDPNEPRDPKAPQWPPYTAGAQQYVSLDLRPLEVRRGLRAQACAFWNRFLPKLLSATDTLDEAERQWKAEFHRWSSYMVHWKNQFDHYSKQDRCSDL
T2 sequence (P22303 32-617 isoform P22303-2 limits assumed): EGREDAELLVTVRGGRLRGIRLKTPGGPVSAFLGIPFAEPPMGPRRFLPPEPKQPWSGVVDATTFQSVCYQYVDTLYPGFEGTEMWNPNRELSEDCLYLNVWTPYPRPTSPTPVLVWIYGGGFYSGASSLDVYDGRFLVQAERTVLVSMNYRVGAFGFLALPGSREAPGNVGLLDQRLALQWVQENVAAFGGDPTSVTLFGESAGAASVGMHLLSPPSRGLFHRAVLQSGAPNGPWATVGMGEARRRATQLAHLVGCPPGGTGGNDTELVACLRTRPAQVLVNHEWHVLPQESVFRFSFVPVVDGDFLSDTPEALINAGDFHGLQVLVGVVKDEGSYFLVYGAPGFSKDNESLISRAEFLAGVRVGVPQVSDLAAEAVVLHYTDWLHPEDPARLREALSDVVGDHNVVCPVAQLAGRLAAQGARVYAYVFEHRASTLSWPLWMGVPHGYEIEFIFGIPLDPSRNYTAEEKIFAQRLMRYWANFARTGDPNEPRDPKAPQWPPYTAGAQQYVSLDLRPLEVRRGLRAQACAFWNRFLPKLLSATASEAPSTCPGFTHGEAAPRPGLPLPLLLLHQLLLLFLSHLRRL
Chain of rh-BuChE (P06276 29-602): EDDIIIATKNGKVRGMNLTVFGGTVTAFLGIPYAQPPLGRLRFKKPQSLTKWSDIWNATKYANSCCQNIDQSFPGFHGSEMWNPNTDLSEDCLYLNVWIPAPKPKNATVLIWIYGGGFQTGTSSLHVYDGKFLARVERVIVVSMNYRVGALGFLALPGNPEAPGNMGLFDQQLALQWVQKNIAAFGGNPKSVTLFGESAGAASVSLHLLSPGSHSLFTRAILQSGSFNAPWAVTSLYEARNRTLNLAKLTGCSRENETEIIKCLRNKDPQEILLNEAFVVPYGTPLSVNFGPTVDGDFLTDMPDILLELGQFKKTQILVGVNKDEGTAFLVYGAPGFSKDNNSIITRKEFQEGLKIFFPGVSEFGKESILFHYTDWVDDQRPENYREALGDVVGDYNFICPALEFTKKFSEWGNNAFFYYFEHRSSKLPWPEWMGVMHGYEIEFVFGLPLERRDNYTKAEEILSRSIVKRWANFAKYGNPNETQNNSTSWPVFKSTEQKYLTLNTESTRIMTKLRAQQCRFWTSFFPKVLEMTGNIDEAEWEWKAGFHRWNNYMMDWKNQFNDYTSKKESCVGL
T1 sequence (P22303 32-614): as the sequence (P22303 32-614) above

| SMILES | IC50 (AChE [1]) [nM] | IC50 (rh-AChE) [nM] | IC50 (rh-BuChE; read-out: IC50 rh-BuChE) [nM] | IC50 (erythrocyte h-AChE; [3]) [nM] | activity compared with Huprine X (AChE [2]) | IC50 (rh-BuChE) [nM] | IC50 (erythrocyte h-AChE) [nM] |
| --- | --- | --- | --- | --- | --- | --- | --- |
| CCC1=CC2Cc3nc4cc(Cl)ccc4c(N)c3[C@@H](C1)C2 [Huprine X] | ~1 | – | – | – | – | – | – |
| Nc1c2c(nc3cc(Cl)ccc13)CC1C=C(CCO)CC2C1 (centres unmarked) [HUP 2, 2-(12-Amino-3-chloro-6,7,10,11-tetrahydro-7,11-methanocycloocta[b]quinolin-9-yl) Ethanol] | – | 1.05 ± 0.13 | 1240 | 6.15 | as high as the Huprine X | – | – |
| COC(=O)CCCC1=CC2Cc3nc4cc(Cl)ccc4c(N)c3C(C1)C2 (centres unmarked) [HUP 29, Methyl 4-(12-Amino-3-chloro-6,7,10,11-tetrahydro-7,11-methanocycloocta[b]quinolin-9-yl)butanoate] | – | 14.6 ± 1.7 | – | – | – | 124 ± 11 | 37.6 |
| Nc1c2c(nc3cc(Cl)ccc13)CC1C=C(CCCCn3cc(CO)nn3)CC2C1 (centres unmarked) [HUP 34, {1-[4-(12-Amino-3-chloro-6,7,10,11-tetrahydro-7,11-methanocycloocta[b]quinolin-9-yl)butyl]-1H-1,2,3-triazol-4-yl}methanol Trifluoroacetic Acid] | – | 0.26 ± 0.08 | 213 ± 18 | 6.91 | – | – | – |
| C=CC(=O)OCCC1=CC2Cc3nc4cc(Cl)ccc4c(N)c3C(C1)C2 (centres unmarked) [HUP 18, 2-(12-Amino-3-chloro-6,7,10,11-tetrahydro-7,11-methanocycloocta[b]quinolin-9-yl)ethyl Acrylate] | – | 20.4 ± 4.6 | 207 ± 16 | 129 | – | – | – |
| CCOC(=O)CC1=CC2Cc3nc4cc(Cl)ccc4c(N)c3C(C1)C2 (centres unmarked) [HUP 1, Ethyl (12-Amino-3-chloro-6,7,10,11-tetrahydro-7,11-methanocycloocta[b]quinolin-9-yl)acetate] | – | 3.9 ± 0.5 | 137 ± 11 | 38.3 | – | – | – |
| CS(=O)(=O)OCCCCC1=CC2Cc3nc4cc(Cl)ccc4c(N)c3C(C1)C2 (centres unmarked) [HUP 31, 4-(12-Amino-3-chloro-6,7,10,11-tetrahydro-7,11-methanocycloocta[b]quinolin-9-yl)butyl Methanesulfonate] | – | 4.76 ± 1.68 | 243 ± 12 | 13.3 | – | – | – |
| Nc1c2c(nc3cc(Cl)ccc13)CC1C=C(CCCCO)CC2C1 (centres unmarked) [HUP 30, 4-(12-Amino-3-chloro-6,7,10,11-tetrahydro-7,11-methanocycloocta[b]quinolin-9-yl)butan-1-ol] | – | 22.4 ± 1.5 | 343 ± 43 | 50.1 | – | – | – |
| COC(=O)c1cn(CCCCC2=CC3Cc4nc5cc(Cl)ccc5c(N)c4C(C2)C3)nn1 (centres unmarked) [HUP 33, Methyl 1-[4-(12-Amino-3-chloro-6,7,10,11-tetrahydro-7,11-methanocycloocta[b]quinolin-9-yl)butyl]-1H-1,2,3-triazole-4-carboxylate] | – | 0.34 ± 0.12 | 291 ± 25 | 10.7 | – | – | – |
| COCCC1=CC2Cc3nc4cc(Cl)ccc4c(N)c3C(C1)C2 (centres unmarked) [HUP 6, 3-Chloro-9-(2-methoxyethyl)-6,7,10,11-tetrahydro-7,11-methanocycloocta[b]quinolin-12-amine] | – | 1.75 ± 0.21 | 401 ± 26 | 4.5 | – | – | – |
